How the values were obtained:
Format in all cases: cell-based
[1] = test system: AGS cell lines (human gastric adenocarcinoma); assay: MTT reduction cytotoxicity assay; details: for mean percentage of viable cells ± SD: 24 h
Method: (§1) Cell cultures: The L929 mouse fibroblasts and human gastric adenocarcinoma cell line AGS were used for in vitro cytotoxicity assays. The cells were maintained under standard conditions (37 ^∘ C, 5% CO 2 ) in 25 cm^2 tissue culture flasks in RPMI-1640 medium supplemented with 10% fetal bovine serum (FBS) and antibiotics: 100 U/mL penicillin and 100 μ g/mL streptomycin. The cell suspension containing 10 ^8 cells in 1 mL, was obtained by treatment of confluent monolayers with 0.25% trypsin solution, washed and subcultured. Cell cultures were supplemented with medium to maintain them in log phase growth. The viability of the cells was assessed by exclusion of trypan blue dye.
(§2) Measurements of cellular metabolic activity and global growth inhibition: L929 cells were seeded into 96-well plates (2 × 10 ^5 cells/well) for 24 h, at 37 ^∘ C, 5% CO2 . Tested compounds 5a–c, 6a–c, 7a–c, 8a–c, 9b,c, 10b,c, 12a and 13a were diluted serially in RPMI-1640 medium in concentrations of 50, 20, 10, 5, 0.5 and 0.1 μ g/mL, added to the cells (100 μ L/well), and incubated under standard conditions for 24 h. The potential harmful effect of lactones on L929 and AGS cells was assessed by the ability of the cells to reduce 3-(4,5-dimethylthiazol-2-yl)-2,5-diphenyltetrazolium bromide (MTT) to formazan. The solution of MTT (5 mg/mL in PBS), was added to each well and the plates were incubated for 4h at 37 ^∘ C. Formazan crystals were dissolved with acidic isopropanol (0.1 M HCl in absolute isopropanol) and the plates were read in a plate reader (Victor 2) at 570 nm. The percentage of MTT reduction was calculated by comparing the absorbance of treated cells to that of untreated control cells. Results are expressed as the mean percentage of viable cells ± standard deviation (SD) of four independent experiments. Statistical significance was accepted at a p-value < 0.05.

[2] = test system: L929 cell lines (mouse fibroblasts); assay: MTT reduction cytotoxicity assay; details: 24 h
Method: as §1, §2

[3] = test system: Staphylococcus aureus ATCC 65389; assay: Bactericidal activity, CFU counting method; details: S. aureus ATCC 65389; for Number of CFU/mL (× 10^7): 18 h at 37 °C, Control 21.36, Control with DMSO 20.85; for less CFU/mL (reduction of the number of CFU/mL): versus control
Method: (§3) The bacterial cultures: Escherichia coli ATCC 8739 and Staphylococcus aureus ATCC 65389 were grown on Luria–Bertani Agar for 18 h at 37 ^∘ C. The strain suspension was prepared in 0.85% saline, with an optical density equivalent to a 0.5 McFarland standard. Next, the following mixtures were prepared: 180 μ L of sterile enriched broth (BTL), 10 μ L of the bacterial suspension and 10 μ L of the tested compound (range 0.1–50 μ g/mL) solubilized in DMSO. As a negative control, only DMSO was added. As a sterility control, 180 μ L of BTL and 20 μ L saline were used. The microtiter plate was incubated at 37 ^∘ C for 18 h. The colony forming unit (CFU) method was used to evaluate the microbial population. The experiment was repeated three times. Gentamicin was used as the reference antibiotic.

[4] = test system: Escherichia coli ATCC 8739; assay: Bactericidal activity, CFU counting method; details: E. coli ATCC 8739; for Number of CFU/mL (× 10^7): 18 h at 37 °C, Control 9.47, Control with DMSO 9.30
Method: as §3

Structure (SMILES)	IC50 [1] [µM]	mean percentage of viable cells ± SD ([1]; 0.1 μg/mL) [%]	mean percentage of viable cells ± SD ([1]; 0.5 μg/mL) [%]	mean percentage of viable cells ± SD ([1]; 5 μg/mL) [%]	mean percentage of viable cells ± SD ([1]; 10 μg/mL) [%]	mean percentage of viable cells ± SD ([1]; 20 μg/mL) [%]	mean percentage of viable cells ± SD ([1]; 50 μg/mL) [%]	mean percentage of viable cells ± SD ([2]; 0.1 μg/mL) [%]	mean percentage of viable cells ± SD ([2]; 0.5 μg/mL) [%]	mean percentage of viable cells ± SD ([2]; 5 μg/mL) [%]	mean percentage of viable cells ± SD ([2]; 10 μg/mL) [%]	mean percentage of viable cells ± SD ([2]; 20 μg/mL) [%]	mean percentage of viable cells ± SD ([2]; 50 μg/mL) [%]	Number of CFU/mL (× 10^7) [3]	Number of CFU/mL (× 10^7) [4]	less CFU/mL (reduction of the number of CFU/mL) [3]	less CFU/mL (reduction of the number of CFU/mL) ([4]; versus control)
CC1CC(=O)OC(c2cccc3ccccc23)C1Cl (mixture of isomers) [6a, Cis,trans-5-chloro-tetrahydro-4-methyl-6-(naphthalen-1-yl)pyran-2-one]	1.9	35 ± 0.06	28 ± 0.07	23 ± 0.09	19 ± 0.01	8 ± 0.09	8 ± 0.05	15 ± 0.03	11 ± 0.08	9 ± 0.15	7 ± 0.07	6 ± 0.03	2 ± 0.09	5.20 × 10^7 CFU/mL	7.58 × 10^7 CFU/mL		
CC1CC(=O)OC(c2ccccc2)C1Cl (mixture of isomers) [6b, Cis,trans-5-chloro-tetrahydro-4-methyl-6-phenylpyran-2-one]	4.4	42 ± 0.02	35 ± 0.02	28 ± 0.03	21 ± 0.02	14 ± 0.07	8 ± 0.06	32 ± 0.07	27 ± 0.12	25 ± 0.02	16 ± 0.03	4 ± 0.15	2 ± 0.05	3.58 × 10^7 CFU/mL	6.32 × 10^7 CFU/mL	78–83%	
CC1CC(=O)OC(c2ccc(F)cc2)C1Cl (mixture of isomers) [6c, Cis,trans-5-chloro-6-(4-fluorophenyl)-tetrahydro-4-methylpyran-2-one]	2.9	49 ± 0.10	37 ± 0.05	28 ± 0.06	16 ± 0.10	14 ± 0.07	6 ± 0.08	24 ± 0.03	22 ± 0.05	18 ± 0.12	9 ± 0.05	4 ± 0.08	2 ± 0.02	7.39 × 10^7 CFU/mL	2.06 × 10^7 CFU/mL	83%	70–78%
CC1CC(=O)OC(c2cccc3ccccc23)C1Br (mixture of isomers) [8a, Cis,trans-5-bromo-tetrahydro-4-methyl-6-(naphthalen-1-yl)pyran-2-one]	1.6	61 ± 0.10	47 ± 0.06	39 ± 0.09	25 ± 0.05	17 ± 0.07	9 ± 0.09	23 ± 0.03	19 ± 0.03	14 ± 0.03	7 ± 0.06	4 ± 0.02	1 ± 0.15	9.29 × 10^7 CFU/mL	7.14 × 10^7 CFU/mL	83%	
CC1CC(=O)OC(c2ccccc2)C1Br (mixture of isomers) [8b, Cis,trans-5-bromo-tetrahydro-4-methyl-6-phenylpyran-2-one]	1.9	44 ± 0.15	35 ± 0.10	31 ± 0.02	28 ± 0.09	17 ± 0.10	11 ± 0.05	24 ± 0.03	17 ± 0.08	15 ± 0.03	8 ± 0.05	4 ± 0.08	1 ± 0.02	9.04 × 10^7 CFU/mL	5.83 × 10^7 CFU/mL		
CC1CC(=O)OC(c2ccc(F)cc2)C1Br (mixture of isomers) [8c, Cis,trans-5-bromo-6-(4-fluorophenyl)-tetrahydro-4-methylpyran-2-one]	2.5	69 ± 0.15	58 ± 0.10	43 ± 0.10	18 ± 0.07	11 ± 0.03	10 ± 0.09	25 ± 0.03	20 ± 0.08	15 ± 0.03	11 ± 0.03	5 ± 0.02	1 ± 0.05	3.60 × 10^7 CFU/mL	8.87 × 10^7 CFU/mL	78–83%	
CC1CC(=O)OC(c2ccc(F)cc2)C1Cl (stereo not drawn) [5c, Trans,trans-5-chloro-6-(4-fluorophenyl)-tetrahydro-4-methylpyran-2-one]	0.6	54 ± 0.12	47 ± 0.12	44 ± 0.10	34 ± 0.09	21 ± 0.08	10 ± 0.12	26 ± 0.03	21 ± 0.15	14 ± 0.09	10 ± 0.03	4 ± 0.06	2 ± 0.12	14.83 × 10^7 CFU/mL	9.46 × 10^7 CFU/mL		
CC1CC(=O)OC(c2ccc(F)cc2)C1Br (stereo not drawn) [7c, Trans,trans-5-bromo-6-(4-fluorophenyl)-tetrahydro-4-methylpyran-2-one]	3.5	63 ± 0.03	49 ± 0.06	42 ± 0.02	25 ± 0.12	18 ± 0.10	8 ± 0.07	27 ± 0.08	21 ± 0.08	17 ± 0.02	11 ± 0.08	5 ± 0.05	1 ± 0.03	6.42 × 10^7 CFU/mL	6.52 × 10^7 CFU/mL		

Reference: paper PMC6572184, “New γ-Halo-δ-lactones and δ-Hydroxy-γ-lactones with Strong Cytotoxic Activity” (Molecules, 2019)
